The values that follow come from EP0682649B1, “DEUTERATED SEVOFLURANE AS AN INHALATIONAL ANESTHETIC” (UNIVERSITY OF IOWA RESEARCH FOUNDATION, priority 1993, dated 1994).

Where two headings read alike, the source gives them in different places.

One series deals with rat liver microsomes. In kind it is in vitro ADME, male Sprague-Dawley rats. The settings on record: for defluorination by rat liver microsomes, nmol F^- /mg protein/30 min ± S.E.: 1 µl anesthetic per incubation, mean and standard error of triplicate determinations; for percent decline from sevoflurane values (degree of inhibited metabolism): following correction for background (0.43). Here is the method:
The metabolism of D2-sevoflurane is expected to liberate one fluoride ion for each molecule metabolized by cytochrome P450 since the metabolism of sevoflurane liberates fluoride and hexafluoroisopropanol. To determine the metabolism of D2-sevoflurane relative to sevoflurane and enflurane, these anesthetics were incubated with hepatic microsomes from untreated male Sprague-Dawley rats (200-230g), or rats treated with isoniazid (80mg/kg, i.p. for 5 days), or phenobarbital (0.2% in the drinking water for 4 days). Isoniazid induces the cytochrome P450 isozyme P450 2E1 which is thought to metabolize the volatile anesthetics, and phenobarbital induces several forms also shown to play a role in anesthetic metabolism in the rat.
Each incubation vial (6 ml plastic vial) contained 3 ml of 5 mg/ml microsomal protein in a 0.1 M sodium phosphate buffer, pH 7.4. An NADPH generating system was added to cytochrome P450 activity, and the NADPH generating system was omitted from control incubations. […] Reactions were stopped by placing the vials on ice. Fluoride was assayed in the microsomal mixtures using fluoride ion-specific electrodes (Fisher Scientific) and a 720A Orion pH/ISE meter. Following incubation microsomes were mixed with an equal volume of TISABII buffer for fluoride analysis. Fluoride in each sample was determined from standard curves constructed using fluoride standards (10^-7 to 10^-3 M NaF) prepared from a commercially available standard solution (10^-1 M NaF).
A general note: Liver microsomes are a subcellular fraction often used to study metabolism.

The nature of series [1]: Breakdown by soda lime in an anesthesia circuit (gas chromatography). The following applies: for production of volatile degradation by-products: soda lime temperature maintained in the range of 4°C to 27°C. The format is physicochemical. How it is done: An anesthesia circuit containing fresh soda lime (1.5 kg) was set up with an anesthesia machine (Foregger F 500). […] The gases were re-circulated at a total circuit flow rate of 1.5 liters per minute (a relatively low clinical total flow rate) in a closed system with a respirator. Carbon dioxide was added to the circuit at a constant rate of 200 ml per minute. This set up the conditions for "worst case" breakdown of sevoflurane by soda lime.
Experiments were conducted at exothermic temperature versus with the soda lime canister immersed in an ice bath. […] Products were continually detected for the remainder of the experiments (up to eight hours) by gas chromatography.

The test system of the next series is Male Sprague-Dawley rats. The experiment in a line: Induction of anesthesia in exposure chamber at 3% anesthetic. The format is in vivo. The following applies: initial concentration 3% anesthetic in 100% oxygen, 3.8 L chamber. Here is the method:
(§1) The animals were exposed in a 3.8 L plastic exposure chamber with an atmosphere of 100% oxygen. Male Sprague-Dawley rats (200-220g, 4 per group) were placed in the chamber and the chamber was flushed with oxygen and sealed. Anesthetic was introduced into the chamber in liquid form via an injection port. Quantities were introduced to give initial concentrations of 3% anesthetic (enflurane, 464 µl; sevoflurane and D2-sevoflurane, 524 µl). The rats became anesthetized within 4-6 minutes after introduction of each anesthetic. Oxygen and carbon dioxide were monitored periodically during the exposure period with an Ohmeda 6000 multi-gas monitor.

The nature of series [2]: In vivo metabolism: plasma fluoride after 30 minute inhalation exposure. Also noted: species or system Male Sprague-Dawley rats. The following applies: 30 minute exposure, 3% anesthetic.
Source text: Untreated rats or rats treated with isoniazid or phenobarbital were exposed to D2-sevoflurane, sevoflurane, or enflurane to determine the relative rates of fluoride production in vivo.
as §1
Following a 30 minute exposure period, the chamber was flushed with 100% oxygen for 5 minutes and the animals rapidly awakened. The rats were immediately removed and injected i.p. with 80 mg/kg secobarbital. While anesthetized 3 to 4 ml of blood were withdrawn by cardiac puncture within 15 minutes of termination of anesthetic exposure (within 10 minutes of removal from the chamber). Plasma was prepared and fluoride analyzed as described above.

Series [3] can be described thus: Incubations with soda lime in static systems. In kind it is physicochemical. The following applies: for degradation products with soda lime: static system.
For series [4] the following is noted: cited from earlier work; for metabolism and defluorination relative to the undeuterated compound: U.S. Patent 4,154,971, U.S. Patent 4,153,636.
For series [5] the following is noted: cited from earlier work.
For series [6] the following is noted: cited from earlier work. The source holds these as a separate data set.
Another series has as its system mice. The settings on record: cited from earlier work.
[7] abbreviates: Animal Treatment: Phenobarbital.

As to `[2H]C([2H])(F)OC(C(F)(F)F)C(F)(F)F` [D2-sevoflurane, fluoro-dideutero-methyl-1,1,1,3,3,3,-hexafluoro-2-propyl ether], the “defluorination by rat liver microsomes, nmol F^- /mg protein/30 min ± S.E.” value with rat liver microsomes (Animal Treatment: Isoniazid) was 1.55 ± 0.39 nmol F^- /mg protein/30 min; in the series with rat liver microsomes (Animal Treatment: None), 0.62 ± 0.60 nmol F^- /mg protein/30 min; in the series with rat liver microsomes (setting [7]), 0.18 ± 0.03 nmol F^- /mg protein/30 min. Also, the “percent decline from sevoflurane values (degree of inhibited metabolism)” value is 79% with rat liver microsomes (microsomes from isoniazid treated rats), 84% in the series on rat liver microsomes (microsomes from phenobarbital treated rats) and 68% in the series on rat liver microsomes (microsomes from untreated rats). For the same compound, the “defluorinated slower than sevoflurane (% less)” value in the series on rat liver microsomes (microsomes from phenobarbital and isoniazid treated rats, over a wide range of anesthetic concentrations (figures 1 and 2)) was 70-86%. The “production of volatile degradation by-products” value in series [1] is on record as “virtually insignificant levels”. For the same compound, in the series with Male Sprague-Dawley rats, the “time until rats became anesthetized after introduction of anesthetic” value (“time until rats became anesthetized” below) was 4 to 6 min. The “plasma fluoride liberated, % less than sevoflurane” value in [2] (isoniazid treated rats) was 61%; in [2] (phenobarbital treated animals) it was 66%; in series [2] (untreated rats), 34%. Moreover, the entries for the “plasma fluoride, % less than enflurane anesthetized animals” value in series [2] (isoniazid treated rats), in series [2] (phenobarbital treated rats) and in series [2] (untreated rats) were 80%, 45% and 40%, respectively. Besides, in series [3] (similar experiments to those run with sevoflurane), the “degradation with soda lime, compared with sevoflurane” value is reported as “essentially the same”.

As for `[2H]C(Cl)(Cl)C(F)(F)OC` [1,1-difluoro-2,2-dichloro-2-deuteroethyl methyl ether], the “metabolism and defluorination relative to the undeuterated compound” value in [4] is recorded as “more readily metabolized into inorganic fluoride than the undeuterated compound”; in series [4] (listed as 1,1 difluoro-2-2-dichloro-2-deuteroethyl methyl ether) it was “increase inorganic fluoride release”.

Consider `FC(F)OC(F)(C(F)F)C(F)F` [(CHF2)2CF-O-CHF2], for which, in series [5] (in vivo), the anesthetic properties entry is given as “weak anesthetic in which deep anesthesia is not obtained”; the “electro-encephalographic and convulsant activity” value is “abnormal electro-encephalographic and convulsant activity is observed”.

Consider `COC(F)(C(F)(F)F)C(F)(F)F` [CH3OCF(CF3)2], for which, in series [5] (U.S. Patent 3,683,092), the “non-anesthetic up to (concentration)” value is over 8 % by volume in oxygen.

In the case of `FCOC(C(F)(F)F)C(F)(F)F` [Sevoflurane, fluoromethyl-1,1,1,3,3,3-hexafluoro-2-propyl ether], the “lower flammability limit in oxygen” value in [6] was “about 11.8 volume percent”. Moreover, the “defluorination by rat liver microsomes, nmol F^- /mg protein/30 min ± S.E.” value with rat liver microsomes (setting [7]) is on record as 1.18 ± 0.06 nmol F^- /mg protein/30 min. Moreover, the “time after circuit start at which degradation products were detected” value in series [1] (exothermic temperature, soda lime core 44°C to 47°C, initial concentration 2.7%, flow 1.5 liters per minute) is listed as “about 1.5 hours”. Moreover, the degradation products detected entry in series [1] (soda lime canister in ice bath, core 22°C to 27°C, run up to eight hours) is “no degradation products were detected”. Moreover, the “production of volatile degradation by-products” value in [1] is given as “virtually insignificant levels”. Besides, the “time until rats became anesthetized” value in the series with Male Sprague-Dawley rats lay within 4 to 6 min. Besides, the “degradation products with soda lime” value is reported as “some degradation products including "Compound A" were detected” in series [3] (22°C) and “substantial degradation products, including "Compound A", were produced” in [3] (45°C).

Consider `FC(F)C(F)(F)COC(F)(F)F` [trifluoromethyl-2,2,3,3-tetrafluoropropyl ether], for which the “concentration causing violent convulsions and death (as low as)” value with mice is listed as “.5%”.

Regarding `[2H]C(Cl)(Cl)C(F)(F)OC(F)F` [1,1-difluoro-2-deutero-2,2-dichloroethyl difluoromethyl ether], the “metabolism and defluorination relative to the undeuterated compound” value in series [4] was “slower metabolism and thus slower defluorination”.

In the case of `[2H]C(Cl)(Br)C(F)(F)F` (stereo not drawn) [Deuterated Halothane], the “effect of deuteration on metabolism” value in [4] (Sipes et al., J. Pharmacol. Exp. Ther. 214: 716-720, 1980) is listed as “inhibits its metabolism to trifluoroacetic acid, but not its metabolism to release fluoride”.

As for `[2H]C(F)(Cl)C(F)(F)OC(F)F` (stereo not drawn) [1,1,2-trifluoro-2-chloro-2-deuteroethyl-difluoromethyl ether], in [4], the “metabolism and defluorination relative to the undeuterated compound” value was “slower metabolism and thus slower defluorination”.

Regarding `[2H]C(F)(Br)C(F)(F)OC(F)F` (stereo not drawn) [1,1,2-trifluroro-2-bromo-2-deuteroethyl difluoromethyl ether], the “metabolism and defluorination relative to the undeuterated compound” value in [4] is “slower metabolism and thus slower defluorination”.

As for `FC(F)OCC(F)(F)C(F)(F)F` [CHF2OCH2CF2CF3], the convulsions entry with mice is “produces convulsions”. Further, the anesthetic properties entry in series [5] (in vivo) is “non-anesthetic up to its lethal concentration”.

Consider `[2H]C([2H])([2H])OC(F)(F)C(Cl)Cl` [2,2-dichloro-1,1-difluoro-1-methoxy-D3-ethane], for which the “metabolism and defluorination relative to the undeuterated compound” value in [4] is “decreased metabolism”.

Consider `FC(F)OC(F)(F)C(F)Cl` (stereo not drawn) [enflurane], for which the “anesthetic concentration-dependent inhibition of metabolism” value in the series with rat liver microsomes (microsomes from isoniazid treated rats (figure 1)) is “anesthetic concentration-dependent inhibition of metabolism”. In the series with Male Sprague-Dawley rats, the “time until rats became anesthetized” value lay in the range of 4 to 6 min.
